One molecule from patent EP3698776A1, “TAMPER-RESISTANT DOSAGE FORM WITH IMMEDIATE RELEASE AND RESISTANCE AGAINST SOLVENT EXTRACTION” (Grünenthal GmbH, priority 2019, dated 2020) can be followed below.

For data set [1], the system named is non-dependent recreational opioid users. Briefly: Human abuse liability study, intranasal: pharmacodynamics (VAS Drug Liking, pupillometry). It counts as in vivo. To be noted: 30 mg oxycodone HCl, Completer Set. The method, then:
The formulation according to Inventive Example 1 was tested in a human abuse liability study and compared to a commercial product and to placebo (placebo API and placebo TRF formulation).
(§1) A single-site, randomized, double-blind, double-dummy, active-comparator, placebo-controlled, 3-way crossover trial in adult non-dependent recreational opioid users was conducted to compare the intranasal abuse potential of the tablet formulation according to Inventive Example 1 and standard formulations of oxycodone.
(§2) The primary objective of the study was to compare the intranasal abuse potential of a manipulated formulation according to Inventive Example 1 and oxycodone active pharmaceutical ingredient (API) powder (representing manipulated oxycodone IR standard formulation). Primary measure: Peak effect (Emax) for Drug Liking "at this moment" on visual analog scale (VAS). The secondary objectives were to compare the pharmacokinetics (PK), further pharmacodynamic (PD) parameters, and assess safety and tolerability.
The trial design is illustrated in Figure 3 (Single-site, randomized, double-blind, double-dummy, active-comparator, placebo-controlled, 3-way crossover trial in male and female non-dependent recreational opioid users with recent intranasal use experience).
Subjects received single treatments of Test, Comparator, and Placebo in a randomized, double-blind, double-dummy, 3-way crossover. […]

Data set [2] can be described thus: Human abuse liability study, intranasal: pharmacokinetics. It counts as in vivo. As to conditions: inhaled or intranasal, intranasal (insufflated), plasma, PK Set, read-out: median tmax. Here is the method: as §1, §2
Subjects received single treatments of Test, Comparator, and Placebo in a randomized, double-blind, double-dummy, 3-way crossover. Each single treatment consisted of two investigational medicinal products (IMPs), to be insufflated (snorted) in quick succession in fixed sequence:
Pharmacokinetics results are presented in Figure 7 relative to the insufflated amount of oxycodone, mean dose-normalized plasma-concentration-time profiles of Oxycodone - PK Set: […]

As a reminder, the Tmax is the time at which the peak concentration occurs. Turning to `COc1ccc2c3c1O[C@H]1C(=O)CC[C@@]4(O)[C@@H](C2)N(C)CC[C@]314.Cl` [Comparator (C), oxycodone HCl], the “Peak effect (Emax) of Drug Liking "at this moment", Least Square Mean” value in data set [1] is 75.0. For the same molecule, the Tmax in data set [2] turned out to be 1.75 h.
